Test results published in patent publication US20040029930A1, “Fungicidal mixtures based on amide compounds” (priority 2000, published 2004).

Tested on: Plasmopara viticola
Experiment: Activity against Peronospora in grape vines caused by Plasmopara viticola (protective spray, potted vines)
Type: in vivo
Details: individual active ingredient, vine cultivar Müller-Thurgau
Experimental: The active ingredients, separately or together, are formulated as a 10% emulsion in a mixture of 63% by weight of cyclohexanone and 27% by weight of emulsifier, and diluted with water to the desired concentration.
Evaluation is carried out by determining the infected leaf areas in percent. These percentages are converted into efficacies. The efficacy (W) is calculated as follows using Abbot's formula: […]
α corresponds to the fungal infection of the treated plants in % and β corresponds to the fungal infection of the untreated (control) plants in % An efficacy of 0 means that the infection level of the treated plants corresponds to that of the untreated control plants; an efficacy of 100 means that the treated plants were not infected.
The expected efficacies of the mixtures of the active ingredients were determined using Colby's formula [R. S. Colby, Weeds 15, 20-22 (1967)] and compared with the observed efficacies.
E=x+y−x·y/100 Colby's formula
E expected efficacy, expressed in % of the untreated control, when using the mixture of the active ingredients A and B at the concentrations a and b […]
X efficacy, expressed in % of the untreated control, when using active ingredient A at a concentration of a […]
Y efficacy, expressed in % of the untreated control, when using active ingredient B at a concentration of b […]
Activity Against Peronospora in Grape Vines Caused by Plasmmopara viticola […]
Leaves of potted vines of the cultivar “Müller-Thurgau” were sprayed to runoff point with an aqueous preparation of active ingredient which had been prepared using a stock solution comprising 10% of active ingredient, 85% of cyclohexanone and 5% of emulsifier. The next day, the undersides of the leaves were inoculated with an aqueous zoospore suspension of Plasmopara viticola. The vines were then placed firstly for 48 hours in a water-vapor-saturated chamber at 24° C. and then for 5 days in a greenhouse at 20-30° C. After this period of time, the plants were again placed in a moist chamber for 16 hours to accelerate the sporangiophore eruption. The extent to which the undersides of the leaves had been infected was then determined visually.

## Cc1ccc(-c2c(Cl)nc(C#N)n2S(=O)(=O)N(C)C)cc1 [cyazofamid]
1 ppm in the spray liquor
  Efficacy in % of the untreated control: 73%
4 ppm in the spray liquor
  Efficacy in % of the untreated control: 79%
8 ppm in the spray liquor
  Efficacy in % of the untreated control: 84%
16 ppm in the spray liquor
  Efficacy in % of the untreated control: 89%
